# Experimental data reported in US7482008B1, “Human T cell reactive feline protein (TRFP) isolated from house dust and uses therefor” (Merck Patent GmbH, priority 1989, dated 2009).
# Columns and labels:
# [1] = tested on: PBMC from cat-allergic patients; test: IL-2, IFN-gamma and IL-4 measurements by PCR in primary 36 hour PBMC culture; format: cell-based, human; settings: Patient 409 primary 36 hour culture; for STIMULATION INDEX IFN-γ / STIMULATION INDEX IL-4: PCR, vs medium control
# Description: Peripheral blood mononuclear cells (PBMC) were purified from cat-allergic patients as described in Example 5. Five×10^6 PBMC were cultured at 2×10^6/ml for 36 hours in the presence of medium only, 20 μg purified TRFP/ml or 50 μg peptide/ml. The cells were then washed two times with phosphate buffered saline (PBS, pH 7.2) and lysed with 2 ml […] guanidinium isothiocyanate, 0.5% Sarkosyl, 5 mM sodium citrate, 0.1 M 2-mercaptoethanol, pH 7.0. The lysate was then forced through a 26 gauge needle to shear genomic DNA, and was layered onto a 2 ml cushion of 5.7 M CsCl, 0.01 M EDTA, pH 7.5 in diethylpyrocarbonate (DEPC)-treated water. The lysate was centrifuged at 35,000 RPM in a Beckman SW41 rotor for 18 hours at 20° C. The RNA pellet was resuspended in 0.4 ml TE (10 mM Tris, 1 mM EDTA), pH 7.5, 0.1% SDS, and then extracted three times with 0.5 ml phenol/0.2 ml chloroform. The RNA was then precipitated on dry ice with 2.5 volumes ice-cold ethanol, 1/10 volume 3 M sodium acetate, pH 5.2 in DEPC-treated water, rinsed once with 70% ethanol in DEPC-treated water, and dried. The RNA pellet was resuspended in 2 μl TE., pH 7.5 in DEPC-treated water.
# Total cellular RNA was converted to cDNA using the Superscript kit (BRL, Bethesda, Md.). Two μl of RNA were added to one μl oligo (dT)12-18 (500 μg/ml) and 9 μl water. The sample was heated to 70° C. for 10 minutes and ice quenched. Four μl 5× buffer were added to the sample along with 2 μl 0.1 M DTT and 1 μl dNTP mix (10 mM each, dATP, dCTP, dGTP, dTTP). One μl reverse transcriptase (200U) was added and the reaction was carried out for one hour at 42° C. The reaction was terminated by incubation of the sample at 90° C. for five minutes and stored at −80° C.
# Ten-fold serial dilutions of T cell cDNA in 10 mM TRIS, pH 7.5 were amplified using the standard kit and protocol recommended by Perkin Elmer-Cetus (Redwood City, Calif.). Each sample received 26.65 μl water, 5 μl ×PCR buffer, 8 μl of dNTP mix (1.25 mM each of dATP, dCTP, dGTP and dTTP), 0.1 μl alpha 32P-dCTP (3000 Ci/mmol), 0.25 μl AmpliTaq, 5 μl cDNA and 5 μl cytokine-specific 5′ and 3′ primers (20 micromolar). The primers used for most cytokines and the beta-actin control were purchased from Clontech (Redwood City, Calif.). The human IL-4 primers were purchased from Research Genetics (Huntsville, Ala.) and had the following sequences: 5′ hIL-4 primer (SEQ. ID. NO: 58):
# The PCR products were extracted once with 25 μl chloroform and 25 μl of each sample were then electrophoresed on an 8% polyacrylamide gel at 250 V. The gel was dried and exposed to pre-flashed x-ray film. Several exposures of each gel were then scanned using a Shimadzu flying spot laser densitometer. Values on the linear portion of the titrations were then compared to the medium control values to obtain a stimulation index for each sample. Primers for beta-actin were included as a control for general cDNA levels in each sample. Where the medium control values are not detectable, the lowest measurable response was set at 1.00. In other experiments, levels of cytokine cDNA can be compared directly with previously amplified cytokine specific cDNAs as standards. Thus, absolute levels of particular cytokine cDNAs can be compared from one sample to another and from one experiment to another. In this experiment, IL-2, IL-4 and IFN-gamma levels were measured. As shown, in this particular cat-allergic patient, peptides such as Fel 18 generate more IL-4 than certain other TRFP-derived peptides (Fel 14 and Fel 17). This analysis will be expanded to studies of other cytokines involved in the generation of allergic responses, such as IL-5, IL-8, IL-9, TGF-beta. Samples of cDNA from each treatment can also be saved for later analysis once additional cytokines are identified and sequenced. Peptides generating a spectrum of cytokines favorable for the generation of allergic responses can be avoided for therapeutic use in the treatment of cat allergy. […]
# human IgE = test: SDS/PAGE Western immunoblot of human IgE binding, plasma from patient #417; settings: patient #417 plasma
# Description: Western immunoblot analysis of the peptides produced in above was performed. The concentration of all protein samples (e.g., TRFP, recombinant chain 1 of TRFP, recombinant chain 2 of TRFP, peptide XYZ, peptide XZY, peptide YXZ, peptide YZX, peptide ZXY and peptide ZYX) for gel electrophoresis was determined by the BCA method (Pierce Co.). All protein samples were loaded on the gel at 5 μg/lane except TRFP at 10 μg/lane. Protein separation was carried out on a 15% acrylamide gel, and transfer was performed by electroblotting at 1.5 Amps for 1.5 hours onto nitrocellulose paper (Schleicher and Schuell, 0.1 microns) in a Hoeffer apparatus according to the protocol of Towbin, H., T. Stachlin, and J. Gordon, PNAS 76:4350 (1979). Proteins were rinsed in blot solution (25 mM Tris-HCl 7.5, 0.171 M NaCl and 0.5 ml/liter Tween 20). The blot was then blocked for one hour in blocking solution (1% milk in blot solution). Plasma from patient #417, used as a primary antibody source, was diluted in blocking solution to 10% and preabsorbed for 1.5 hours with unused nitrocellulose (2 cm×15 cm). The prepared human plasma was then incubated overnight on an orbital shaker with the protein blot section of interest. Following the first antibody incubation the blot section was washed three times, each wash involved a fifteen minute incubation in blot solution. The second antibody, specific for human IgE (biotinylated goat anti-human IgE, KPL Inc.), was diluted 1:2500 in blot solution and the incubation proceeded for two hours. Excess second antibody was subsequently removed by three 15 minute incubations with blot solution. ^125I Iodinated streptavidin (Amersham) was diluted 1:2500 in blot solution and incubated with blots for 1 hour, at 2 μCi in a 50 ml incubation volume. Blot sections were then washed with blot solution until the detectable radioactivity in the waste solution decreased to background levels. The blot section was then wrapped in saran wrap and exposed to film overnight with a cronex intensifying screen at −80° C.
Substance,RATIO IFN/IL-4 [1],STIMULATION INDEX IFN-γ [1],STIMULATION INDEX IL-4 [1],"IgE binding, Western immunoblot (human IgE)"
"NARILKNCVDAKMTEEDKE [Fel 4, TRFP chain 1 amino acids 37-55]",2.6,25.8,10.0,–
TRFP: human T cell reactive feline protein affinity purified from house dust; two covalently linked chains,0.9,2.1,3.8,reactivity
recombinant chain 1: recombinant TRFP chain 1 expressed in E. coli,–,–,–,strong IgE binding
